The test concerns the target T1, human ACC2 (Homo sapiens, UniProt O00763).
T1 construct: made in house; host or cells: insect cells (baculoviral expression system)
Put plainly: ACC2 assay, spectrophotometric 384 well assay (NADH-linked, coupled lactate dehydrogenase/pyruvate kinase). It is filed as biochemical. To be noted: ACC2 assay, hACC2 construct lacking 128 N-terminal amino acids, 25° C., 340 nm; read-out: IC50. On the procedure:
Spectrophotometric 384 Well Assay
Malonyl CoA formation by acetyl CoA carboxylases is stoichometrically linked to the consumption of ATP. ACC2 activity is measured in a NADH-linked kinetic method measuring ADP generated during the ACC reaction using a coupled lactate dehydrogenase/pyruvate kinase reaction.
For biological testing, a human ACC2 construct which lacks the 128 amino acids at the N-terminus for increased solubility (nt 385-6966 in Genbank entry AJ575592) is cloned. The protein is then expressed in insect cells using a baculoviral expression system. Protein purification is performed by anion exchange.
All compounds are dissolved in dimethyl sulfoxide (DMSO) to a concentration of 10 mM.
Assay reactions are then carried out in 384-well plates, with hACC2 in an appropriate dilution and at final assay concentrations (f.c.) of 100 mM Tris (pH 7.5), 10 mM trisodium citrate, 25 mM KHCO3, 10 mM MgCl2, 0.5 mg/mL BSA, 3.75 mM reduced L-glutathione, 15 U/mL lactate dehydrogenase, 0.5 mM phosphoenolpyruvate, 15 U/mL pyruvate kinase, compounds at different concentrations at final DMSO concentrations of 1%.
The enzymatic reaction is then started by addition of a mixture of NADH, acetyl Coenzyme A (both 200 μM f.c.) and ATP (500 uM f.c.). The decrease of the optical density (slope S) is then determined at 25° C. at a wavelength of 340 nm over 15 minutes in a spectrophotometric reader.
Each assay microtiter plate contains wells with vehicle instead of compound as controls for the non-inhibited enzyme (100% CTL; ‘HIGH’) and wells without acetyl-CoA as controls for non-specific NADH degradation (0% CTL; ‘LOW’).
The slope S is used for calculation of % CTL=(S(compound)−S('LOW'))/(S('HIGH')−S('LOW'))*100. Compounds will give values between 100% CTL (no inhibition) and 0% CTL (complete inhibition).
For IC50 value determination, the sample slope in the presence of the test compound after subtraction of the low controls (S(compound)−S('LOW')) are used.
An IC50 value is derived from the compound slopes at different dosages after subtraction of the low controls (S(compound)−S('LOW')) by non-linear regression curve fitting (equation y=(A+((B−A)/(1+((C/x)^D))))).
T1 sequence (O00763 129-2458 limits assumed): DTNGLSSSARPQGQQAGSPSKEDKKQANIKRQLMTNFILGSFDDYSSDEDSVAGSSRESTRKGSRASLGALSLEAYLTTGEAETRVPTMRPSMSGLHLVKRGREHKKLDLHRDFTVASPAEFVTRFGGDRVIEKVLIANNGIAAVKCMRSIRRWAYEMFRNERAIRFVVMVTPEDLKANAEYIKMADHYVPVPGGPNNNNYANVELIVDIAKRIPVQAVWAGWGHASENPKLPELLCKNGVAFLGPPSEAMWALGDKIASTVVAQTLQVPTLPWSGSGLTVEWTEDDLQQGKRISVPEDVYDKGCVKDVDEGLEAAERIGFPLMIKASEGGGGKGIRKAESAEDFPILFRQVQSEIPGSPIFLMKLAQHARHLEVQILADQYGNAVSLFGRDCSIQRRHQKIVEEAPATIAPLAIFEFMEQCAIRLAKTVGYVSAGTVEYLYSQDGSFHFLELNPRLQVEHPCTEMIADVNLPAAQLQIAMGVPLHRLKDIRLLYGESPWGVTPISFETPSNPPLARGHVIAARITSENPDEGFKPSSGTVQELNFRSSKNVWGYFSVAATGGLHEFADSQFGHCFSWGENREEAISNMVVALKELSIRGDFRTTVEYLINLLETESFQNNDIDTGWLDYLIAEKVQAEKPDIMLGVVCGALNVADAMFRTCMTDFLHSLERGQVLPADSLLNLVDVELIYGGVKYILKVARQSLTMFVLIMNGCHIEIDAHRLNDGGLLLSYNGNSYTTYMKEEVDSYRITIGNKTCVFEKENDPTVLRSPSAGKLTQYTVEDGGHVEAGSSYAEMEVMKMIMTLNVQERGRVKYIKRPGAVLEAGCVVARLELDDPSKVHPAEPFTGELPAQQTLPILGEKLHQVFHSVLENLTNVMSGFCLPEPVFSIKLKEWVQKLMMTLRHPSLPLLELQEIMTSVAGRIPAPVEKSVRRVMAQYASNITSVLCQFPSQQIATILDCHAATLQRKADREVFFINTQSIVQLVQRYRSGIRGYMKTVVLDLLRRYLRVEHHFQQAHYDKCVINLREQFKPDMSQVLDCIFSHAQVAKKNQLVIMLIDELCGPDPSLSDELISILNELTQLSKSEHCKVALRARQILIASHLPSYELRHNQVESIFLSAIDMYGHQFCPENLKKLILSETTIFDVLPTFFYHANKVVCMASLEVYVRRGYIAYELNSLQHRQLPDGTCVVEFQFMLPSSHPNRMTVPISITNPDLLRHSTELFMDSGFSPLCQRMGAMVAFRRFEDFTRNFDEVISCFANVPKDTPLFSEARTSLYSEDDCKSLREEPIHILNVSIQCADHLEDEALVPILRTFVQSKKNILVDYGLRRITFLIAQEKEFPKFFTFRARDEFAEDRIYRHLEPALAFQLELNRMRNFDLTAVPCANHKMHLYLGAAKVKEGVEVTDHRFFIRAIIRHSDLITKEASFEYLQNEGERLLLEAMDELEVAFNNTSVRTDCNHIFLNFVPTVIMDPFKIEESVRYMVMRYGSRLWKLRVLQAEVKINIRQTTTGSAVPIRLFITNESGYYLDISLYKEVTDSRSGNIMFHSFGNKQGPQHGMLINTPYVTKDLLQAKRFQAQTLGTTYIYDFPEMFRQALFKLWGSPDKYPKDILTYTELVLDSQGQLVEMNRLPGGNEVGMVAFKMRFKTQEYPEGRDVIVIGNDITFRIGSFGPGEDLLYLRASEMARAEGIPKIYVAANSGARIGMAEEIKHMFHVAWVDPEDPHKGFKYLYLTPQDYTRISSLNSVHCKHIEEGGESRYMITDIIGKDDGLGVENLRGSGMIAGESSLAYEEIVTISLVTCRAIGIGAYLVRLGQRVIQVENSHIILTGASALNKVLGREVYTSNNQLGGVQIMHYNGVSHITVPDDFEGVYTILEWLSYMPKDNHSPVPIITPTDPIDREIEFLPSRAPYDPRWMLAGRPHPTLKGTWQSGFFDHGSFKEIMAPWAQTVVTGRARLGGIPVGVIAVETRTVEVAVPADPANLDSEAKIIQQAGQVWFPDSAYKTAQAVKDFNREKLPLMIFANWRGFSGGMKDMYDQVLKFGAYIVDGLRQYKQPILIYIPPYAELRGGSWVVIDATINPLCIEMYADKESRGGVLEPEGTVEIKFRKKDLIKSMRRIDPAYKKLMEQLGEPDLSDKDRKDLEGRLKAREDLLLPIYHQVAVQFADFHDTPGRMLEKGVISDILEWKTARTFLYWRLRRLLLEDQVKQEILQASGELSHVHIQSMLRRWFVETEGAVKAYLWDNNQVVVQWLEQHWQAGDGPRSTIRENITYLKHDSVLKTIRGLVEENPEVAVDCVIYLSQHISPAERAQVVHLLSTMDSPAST
For the compound `CCCOc1ccc(N2CCC(c3ccc([C@@H](C)NC(C)=O)cc3)CC2)c(OC)c1` [Example 15.23], the IC50 (commonly the concentration at which inhibition is half-maximal) stood at 6400 nM.

Take `CC(=O)N[C@@H](C)c1ccc(C2CCN(c3ccc(Br)c(C)n3)CC2)cc1` [Example 5.23]: the IC50 is 420 nM.

As to `CC(=O)N[C@@H](C)c1ccc(C2CCN(c3ncc(C(=O)N4CCC(C#N)CC4)cn3)CC2)cc1` [Example 18.71], the IC50 came to 14800 nM.

For the compound `CC(=O)N[C@@H](C)c1ccc(C2CCN(c3cc(NCCC(C)C)ncn3)CC2)cc1` [Example 11.70], the IC50 was determined as 4500 nM.

For `CC(=O)N[C@@H](C)c1ccc(C2CCN(c3ccc(OC4CCCC4)c(Cl)c3)CC2)cc1` [Example 8.39], the IC50 stood at 110 nM.

`CC(=O)N[C@@H](C)c1ccc(C2CCN(c3ccc(C4CC4)cn3)CC2)cc1` [Example 10.304]: the IC50 came to 750 nM.

Consider `C[C@H](NC(=O)C1CC1)c1ccc(C2CCN(c3cc4c(cc3F)OCCCO4)CC2)cc1` [Example 1.185], for which the IC50 amounted to 22100 nM.

For `CCOc1ccc(N2CCC(c3ccc([C@H](C)NC(=O)c4cocn4)cc3)CC2)cc1` [Example 6.47], the IC50 was 730 nM.

Regarding `CCC(CC)Oc1cc(N2CCC(c3ccc([C@H](C)NC(C)=O)cc3)CC2)ncn1` [Example 11.22], the IC50 is 820 nM.

`CCC(CC)Oc1cccc(N2CCC(c3ccc([C@H](C)NC(C)=O)cc3)CC2)c1` [Example 9.16]: the IC50 was 690 nM.

Turning to `CC(=O)N[C@@H](C)c1ccc(C2CCN(c3ccc(C(=O)Nc4ccccc4)cn3)CC2)cc1` [Example 5.30], the IC50 is 180 nM.

As to `CC(=O)N[C@@H](C)c1ccc(C2CCN(c3ncc(C(=O)N(C)c4ccccc4)cn3)CC2)cc1` [Example 18.89], the IC50 was 1200 nM.

In the case of `CCCOc1ccc(N2CCC(c3ccc([C@H](C)NC(=O)N(C)C)cc3)CC2)nc1` [Example 1.178], the IC50 is 170 nM.

Take `CC(=O)N[C@@H](C)c1ccc(C2CCN(c3ncc(OCC4CC4)cn3)CC2)cc1` [Example 4.52]: the IC50 was 530 nM.

In the case of `COc1ccc2[nH]c(-c3cnc(N4CCC(c5ccc([C@H](C)NC(C)=O)cc5)CC4)nc3)cc2c1` [Example 10.115], the IC50 worked out at 410 nM.

`COc1ccc2nc(N3CCC(c4ccc([C@H](C)NC(C)=O)cc4)CC3)ccc2c1` [Example 5.24]: the IC50 came to 990 nM.

In the case of `CC(C)Oc1cc(N2CCC(c3ccc([C@H](C)NC(=O)N(C)C)cc3)CC2)ncn1` [Example 20.3], the IC50 is 180 nM.

Consider `CC(=O)N[C@@H](C)c1ccc(C2CCN(c3ncc(-c4ccc5c(c4)OCO5)cc3F)CC2)cc1` [Example 10.313], for which the IC50 is 120 nM.

In the case of `COC(=O)N[C@@H](C)c1ccc(C2CCN(c3ccc(OC4CCC4)cc3)CC2)cc1` [Example 1.12], the IC50 was 80 nM.

`CNc1cc(N2CCC(c3ccc([C@H](C)NC(C)=O)cc3)CC2)ncn1` [Example 11.85]: the IC50 worked out at 13900 nM.

Consider `COc1cc(OC2CC2)ccc1N1CCC(c2ccc([C@H](C)NC(=O)C3CC3)cc2)CC1` [Example 1.93], for which the IC50 came out at 580 nM.

On to `CC(=O)N[C@@H](C)c1ccc(C2CCN(c3cc(-c4ccc5c(c4)OCO5)ncn3)CC2)cc1` [Example 22.2], for which the IC50 came out at 2500 nM.

For the compound `CCC(NC(C)=O)c1ccc(C2CCN(c3ccc(OCC4CC4)cc3)CC2)cc1` (centres unmarked) [Example 1.203], the IC50 worked out at 620 nM.

As to `CCCN(C)c1cc(N2CCC(c3ccc([C@H](C)NC(C)=O)cc3)CC2)ncn1` [Example 11.68], the IC50 worked out at 610 nM.

For `CC(=O)N[C@@H](C)c1ccc(C2CCN(c3ccnc(OCc4ccccc4)c3)CC2)cc1` [Example 15.3], the IC50 worked out at 200 nM.

As for `CC(C)Oc1ccc(N2CCC(c3ccc([C@H](C)NC(=O)C4CC4)cc3)CC2)cc1` [Example 1.119], the IC50 was 260 nM.

Regarding `CC(=O)N[C@@H](C)c1ccc(C2CCN(c3ccc4cc(Cl)ccc4n3)CC2)cc1` [Example 4.10], the IC50 is 670 nM.

As for `CCOc1ccc(N2CCC(c3ccc([C@H](C)NC(=O)c4cncnc4)cc3)CC2)cc1` [Example 6.42], the half-maximal inhibitory concentration (IC50) is 2800 nM.

With `CC(=O)N[C@@H](C)c1ccc(C2CCN(c3ccnc(OCC(C)C)n3)CC2)cc1` [Example 11.16], the IC50 turned out to be 430 nM.

In the case of `CNC(=O)c1csc(N2CCC(c3ccc([C@H](C)NC(C)=O)cc3)CC2)n1` [Example 5.9], the IC50 came out at 25400 nM.

For the compound `CC(=O)N[C@@H](C)c1ccc(C2CCN(c3cc(N(C)C4CCCC4)ncn3)CC2)cc1` [Example 11.97], the concentration for half-maximal inhibition (IC50) was 330 nM.

As to `CC(=O)N[C@@H](C)c1ccc(C2CCN(c3cc(OCc4cccnc4)ncn3)CC2)cc1` [Example 11.33], the IC50 was 590 nM.

`C[C@H](NC(=O)C1CC1)c1ccc(C2CCN(c3ccnc(Oc4ccccc4)c3)CC2)cc1` [Example 3.14]: the IC50 was determined as 420 nM.

Turning to `CC(=O)N[C@@H](C)c1ccc(C2CCN(c3cc(N(C)C(C)C)ncn3)CC2)cc1` [Example 11.48], the IC50 worked out at 580 nM.

With `CC(=O)N[C@@H](C)c1ccc(C2CCN(c3ncc(-c4ccc(C(F)(F)F)cc4)cn3)CC2)cc1` [Example 10.45], the IC50 was determined as 1100 nM.

As to `CC(=O)N[C@@H](C)c1ccc(C2CCN(c3ncc(C(=O)Nc4ccc(C)cc4)cn3)CC2)cc1` [Example 18.17], the IC50 is 7900 nM.

`CC(=O)N[C@@H](C)c1ccc(C2CCN(c3ccc4nc(C)sc4c3)CC2)cc1` [Example 1.66]: the IC50 was 420 nM.

On to `CC(=O)N[C@@H](C)c1ccc(C2CCN(c3cc(O)ncn3)CC2)cc1` [Example 11.116], for which the IC50 was 14500 nM.

Take `CC(=O)N[C@@H](C)c1ccc(C2CCN(c3ncc(-c4cc5ccccc5[nH]4)cn3)CC2)cc1` [Example 10.119]: the IC50 amounted to 310 nM.

For `CCCOc1cc(N2CCC(c3ccc([C@H](C)NC(C)=O)cc3)CC2)ncn1` [Example 11.1], the IC50 was determined as 180 nM.

With `CC(=O)N[C@@H](C)c1ccc(C2CCN(c3nc(-c4ccccc4)no3)CC2)cc1` [Example 25.3], the IC50 amounted to 950 nM.

With `CC(=O)N[C@@H](C)c1ccc(C2CCN(c3ccc(OCC(C)C)c(C)c3)CC2)cc1` [Example 8.26], the IC50 was 840 nM.

For the compound `C[C@H](NC(=O)N(C)C)c1ccc(C2CCN(c3cc(OC4CCC4)ncn3)CC2)cc1` [Example 20.4], the half-inhibitory concentration (IC50) was 190 nM.

Turning to `CC(=O)N[C@@H](C)c1ccc(C2CCN(c3ncc(C4=CCC5(CC4)OCCO5)cn3)CC2)cc1` [Example 10.93], the IC50 was determined as 4300 nM.

Consider `COc1ccc(N2CCC(c3ccc([C@H](C)NC(C)=O)cc3)CC2)c(F)c1` [Example 1.96], for which the IC50 is 360 nM.

Take `CC(=O)N[C@@H](C)c1ccc(C2CCN(c3ncc(C(=O)Nc4cccc(C)c4)cn3)CC2)cc1` [Example 18.8]: the IC50 amounted to 260 nM.

Take `CC(=O)N[C@@H](C)c1ccc(C2CCN(c3ncc(-c4ccc(C)cc4F)cn3)CC2)cc1` [Example 10.129]: the IC50 came out at 340 nM.

For the compound `CC(=O)N[C@@H](C)c1ccc(C2CCN(c3ccc(OCC4CCC4)c(Cl)c3)CC2)cc1` [Example 9.45], the IC50 is 380 nM.

Turning to `CC(=O)N[C@@H](C)c1ccc(C2CCN(c3ncc(C(=O)NCCCO)cn3)CC2)cc1` [Example 18.47], the IC50 came out at 29100 nM.

Take `CCOc1ccc(N2CCC(c3ccc([C@H](C)NC(C)=O)cc3)CC2)cc1Cl` [Example 8.61]: the IC50 was found to be 300 nM.

On to `CC(=O)N[C@@H](C)c1ccc(C2CCN(c3ccc(OCc4ccccc4)cc3)CC2)cc1` [Example 9.34], for which the IC50 was found to be 150 nM.

`CCC(NC(C)=O)c1ccc(C2CCN(c3ccc4c(c3)OCCO4)CC2)cc1` (centres unmarked) [Example 1.201]: the IC50 was found to be 4600 nM.

Consider `CC(=O)N[C@@H](C)c1ccc(C2CCN(c3ncc(-c4cc5ccccc5o4)cn3)CC2)cc1` [Example 10.14], for which the IC50 is 100 nM.

Take `CC(=O)N[C@@H](C)c1ccc(C2CCN(c3nc(-c4ccccc4)cs3)CC2)cc1` [Example 5.20]: the IC50 was found to be 1200 nM.

For the compound `CC(=O)N[C@@H](C)c1ccc(C2CCN(c3cc(Oc4ccc(F)cc4)ncn3)CC2)cc1` [Example 11.5], the IC50 amounted to 200 nM.

Turning to `CC(=O)N[C@@H](C)c1ccc(C2CCN(c3ccnc(N(C)C(C)C)n3)CC2)cc1` [Example 11.47], the IC50 was determined as 540 nM.

As to `CNCCNC(=O)c1cnc(N2CCC(c3ccc([C@H](C)NC(C)=O)cc3)CC2)nc1` [Example 18.58], the half-inhibitory concentration (IC50) stood at 18100 nM.

As to `CC(=O)N[C@@H](C)c1ccc(C2CCN(c3ccnc(OCCC(C)(C)C)n3)CC2)cc1` [Example 11.11], the IC50 was 820 nM.

As for `C[C@H](NC(=O)N(C)C)c1ccc(C2CCN(c3ccc(OCCC4CC4)cc3)CC2)cc1` [Example 1.144], the IC50 came to 60 nM.
